Test results as given in patent US12324841B2, “Methods of treating cancer with a combination of an anti-PD-1 antibody and an anti-tissue factor antibody-drug conjugate” (GENMAB A/S, priority 2018, dated 2025).
“Also recorded” adds a separate entry of the source.

What was measured:
[1] = test system: CD14+ monocyte/macrophages; experiment: Monocyte/macrophage activation in PBMCs fed killed MDA-MB-231 cells; type: cell-based, human
Text: FIGS. 7A and 7B is a series of graphs in which Tissue Factor positive MDA-MB-231 cells killed with various agents were fed to human peripheral blood mononuclear cells (PBMCs) and immune activation assessed by increased expression of activations markers on innate CD14+ monocyte/macrophages and induction of chemokine and cytokine production.
Immunogenic cell death, as mediated by MMAE, is regulated cell death that activates adaptive immune responses against antigens from dead and dying tumor cells, and allows for the generation of robust innate immune cell activation and subsequent cytotoxic T cell responses targeted towards specific tumor cell antigens. […] Furthermore, these monocyte/macrophages conditioned by ICD-killed cells promote activation of T cells, as evidenced by production of signature inflammatory cytokines associated with cytotoxic T cell responses.

[2] = test system: Tissue Factor positive cell lines; experiment: Cell death and release of ATP and HMGB1 from Tissue Factor positive cell lines; type: cell-based
Text: Auristatin ADC payloads disrupt the microtubule networks resulting in altered ER localization and function, which ultimately results in ER stress.

[3] = test system: MDA-MB-231 (breast cell carcinoma); experiment: Western blot analysis of ER stress induction in MDA-MB-231 cells; type: cell-based; conditions: MDA-MB-231, 18 hours (legend: 16 hours)
Description: Induction of cell death and release of ICD danger signals occurs concomitant with initiation of an ER stress response. Two Tissue Factor positive cell lines, HPAFII (pancreatic carcinoma) and MDA-MB-231 (breast cell carcinoma) were exposed to tisotumab vedotin ADC, an Isotype-MMAE ADC (H00-MMAE, IgG1 MMAE), or free MMAE for 18 hours and induction of ER stress monitored by western blot analysis. Phosphorylation of inositol-requiring transmembrane kinase/endonuclease 1 (IRE1) was detected after treatment with tisotumab vedotin ADC or MMAE free drug (FIG. 6). […] The ability for auristatins to prime the immune system to recognize tumor antigens opens the door for a myriad of combinatorial therapeutic options.

[4] = test system: MDA-MB-231 cells (breast adenocarcinoma); experiment: MDA-MB-231 xenograft model in humanized NSG mice; type: in vivo; conditions: IV, weekly
Description: Mice were subcutaneously inoculated with 5×10^6 MDA-MB-231 cells (breast adenocarcinoma; American Tissue Culture Collection (ATCC), cat. no. HTB-26), in 100 μL phosphate-buffered saline (PBS). Before inoculation, cells were cultured in DMEM with high glucose and HEPES without L-glutamine (Lonza, cat. no. BE12-[…]), 10% (v/v) donor bovine serum with iron New Zealand Origin (Thermo Fisher Scientific, DBSI, cat. no. 10371-029), 2 mM L-glutamine (Lonza, cat. no. BE17-[…]), 1 mM Na-pyruvate (Lonza, cat. no. BE13-[…]), MEM non-essential amino acids (Life Technologies, cat. no. 11140) and 1% (v/v) penicillin/streptomycin (Lonza, cat. no. DE17-[…]), in CellSTACK culture chambers (Corning, cat. no. 3313). Tumor size was determined by caliper measurement at least two times a week and tumor volume was calculated as 0.52×length×width^2. […] The first dose of the anti-PD-1 antibody (i.e., pembrolizumab) was 10 mg/kg, followed by 5 mg/kg every five days for a maximum of six treatments. […] The IgG1 isotype control antibody is the b12 antibody which is known to bind to HIV-1 gp120. […] Mice were housed in individually ventilated (IVC) cages, five mice per cage and identified by ear tags. […] Statistical comparison of tumor burden was performed using Mann-Whitney analysis on the last day that all treatment groups were intact. Kaplan-Meier analysis was performed based on tumor volume (>500 mm^3).

[5] = test system: relapsed, recurrent, and/or metastatic cervical cancer; experiment: Phase I/II trial of tisotumab vedotin (NCT02001623); type: in vivo, human
Text: Further investigation of tisotumab vedotin as a monotherapy and in combination with immunotherapy (e.g., an anti-PD-1 antibody) in a larger cohort of patients with cervical cancer is needed.
Three adverse events of special interest were identified during treatment with tisotumab vedotin alone in the Phase IIa trial discussed above: 1) ocular adverse events; 2) adverse events of peripheral neuropathy; and 3) adverse events of bleeding. […] In the present trial, in order to prevent ocular AEs, all subjects in both treatment groups (i.e., tisotumab vedotin alone or in combination with pembrolizumab) must adhere to the following ocular pre-medication guidelines: 1) use of preservative-free lubricating eye drops during the whole treatment phase of the trial (i.e., from first dose of tisotumab vedotin until the safety follow-up visit). Lubricating eye drops should be administered according to the product prescribing information; 2) it is recommended not to wear contact lenses while treated with tisotumab vedotin from the first dose until a safety follow-up visit; 3) use of refrigerator-based eye cooling pads during infusion, e.g. THERA PEARL Eye Mask or similar, to be applied immediately before infusion in accordance with the instructions provided with the eye cooling pads; 4) administration of local ocular vasoconstrictor before infusion (brimonidine tartrate 0.2% eye drops or similar, 3 drops in each eye immediately prior to start of infusion; otherwise to be used in accordance with the product prescribing information). […] Steroid eye drops should be administered as 1 drop in each eye, 3 times daily, for 3 days, or used in accordance with the product prescribing information.
For AEs of peripheral neuropathy (including neuropathy peripheral; peripheral sensory neuropathy; peripheral motor neuropathy; polyneuropathy): Peripheral neuropathy is a well-known adverse reaction to treatment with platinum and taxane based chemotherapies as well as MMAE-based ADCs and is reported in approximately 35% of subjects who received treatment with tisotumab vedotin. […] A mitigation plan, including dose reduction (See Table 4) and dose delays, is in place to control the rates and severity of peripheral neuropathy observed in subjects treated with tisotumab vedotin. For Grade 2 and 3, or initial or worsening of pre-existing condition, hold tisotumab vedotin until event has improved to ≤grade 1 then reduce next dose according to dose reduction shown in Table 4. No action is required to be taken with pembrolizumab. For ≥Grade 4, permanently discontinue tisotumab vedotin. Contact sponsor to discuss continuation of pembrolizumab alone.
For AEs of bleeding: Bleeding events are considered of special interest due to the mode of action of tisotumab vedotin. […] Dose modification and toxicity management guidelines are in place (Table 7).

[6] = compared to IgG1-MMAE ADC or tisotumab alone
[7] = subjects who received tisotumab vedotin

tisotumab vedotin: antibody-drug conjugate comprising an antibody that binds to tissue factor (TF), a protease-cleavable linker, and the microtubule disrupting agent MMAE
chemotactic and inflammatory mediators from monocyte/macrophages after uptake of dead cells [1]: elicit strong chemotactic and inflammatory mediators | monocyte/macrophage activation, CD86 expression by flow cytometry [1, 6]: drove monocyte/macrophage activations | release of innate chemokines including MIP 1β [1, 6]: induced release of innate chemokines including MIP 1β | cell death [2]: undergo cell death | ATP release/secretion ([2]; FIG. 5A): drove robust A) ATP secretion; also recorded: release the ICD related molecules ATP | activity on multiple Tissue Factor positive cell lines ([2]; FIG. 5B): active on multiple Tissue Factor positive cell lines | HMGB1 release/secretion ([2]; FIG. 5C): drove robust A) ATP secretion and C) HMGB1 release; also recorded: release the ICD related molecules ATP (FIG. 5A) and HMGβ1 | ATF4 cleavage (PERK pathway) [3]: upregulation of ATF4 cleavage | phosphorylation of IRE1 [3]: detected | phosphorylation of JNK [3]: increased phosphorylation | tumor burden as assessed by tumor volume ([4]; tisotumab vedotin alone 0.5 mg/kg): efficiently reduced tumor burden | tumor burden as assessed by tumor volume ([4]; tisotumab vedotin alone 1.0 mg/kg): efficiently reduced tumor burden | efficacy ([5]; 2.0 mg/kg tisotumab vedotin): robust efficacy | safety profile ([5]; 2.0 mg/kg tisotumab vedotin): manageable safety profile | bleeding events: epistaxis, frequency ([5]; in vivo): most common reported AE | bleeding events: epistaxis, grade ([5]; in vivo): nearly all of the cases are grade 1 | clinically relevant perturbations in aPTT or prothrombin time (PT) ([5]; in vivo): have not been observed | peripheral neuropathy as cause of permanent discontinuation [5, 7]: leading cause of permanently discontinuation | peripheral neuropathy, grade of reported cases [5, 7]: majority of the reported cases are grade 1-2 | peripheral neuropathy, share of subjects [5, 7]: approximately 35% | ocular AEs: grade 1-2 conjunctivitis ([5]; tisotumab vedotin alone): frequently reported
